Source: patent publication US20080009418A1, “Selective Inhibitors” (Alchemia LTD., priority 2004, published 2008)

Tests used:
[1] = biological target: T1, Human opioid (ORL1) (Homo sapiens, UniProt P41146); assay: Radioligand binding, human opioid ORL1 membranes, FlashPlate, [125I]-Nociceptin; conditions: compound at 10 μM, [125I]-Nociceptin
T1 construct: purchased Perkin Elmer Biosignal
Summary of the method: (§1)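 Cloned human receptor membranes were coated onto FlashPlate wells and incubated with radioligand and compound (added from a 0.5 mM DMSO daughter plate) for 1 hour at room temperature in the dark. Scintillation counting gave percent inhibition, with DMSO defining total and reference ligand defining non-specific binding.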

[2] = biological target: T2, Human δ-opioid (DOP) (Homo sapiens, UniProt P41143); assay: Radioligand binding, human δ-opioid (DOP) membranes, FlashPlate, [3H]-Bremazocine; conditions: compound at 10 μM, [3H]-Bremazocine
T2 construct: purchased Perkin Elmer Biosignal
T2 sequence (P41143 whole entry): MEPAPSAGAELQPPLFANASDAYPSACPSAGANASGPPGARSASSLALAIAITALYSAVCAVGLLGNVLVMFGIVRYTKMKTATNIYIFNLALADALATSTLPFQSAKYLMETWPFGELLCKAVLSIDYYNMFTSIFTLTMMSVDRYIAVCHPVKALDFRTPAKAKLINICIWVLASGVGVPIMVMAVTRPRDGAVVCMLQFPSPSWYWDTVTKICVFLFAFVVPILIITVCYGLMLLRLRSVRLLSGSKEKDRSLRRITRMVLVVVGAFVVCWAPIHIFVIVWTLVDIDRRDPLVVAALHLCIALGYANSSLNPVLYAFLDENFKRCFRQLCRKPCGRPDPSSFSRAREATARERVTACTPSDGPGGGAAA
Summary of the method: as §1

[3] = biological target: T3, Human μ-opioid (MOP) (Homo sapiens, UniProt P35372); assay: Radioligand binding, human μ-opioid (MOP) membranes, FlashPlate, [3H]-Naloxone; conditions: compound at 10 μM, [3H]-Naloxone
T3 construct: purchased Perkin Elmer Biosignal
T3 sequence (P35372 whole entry): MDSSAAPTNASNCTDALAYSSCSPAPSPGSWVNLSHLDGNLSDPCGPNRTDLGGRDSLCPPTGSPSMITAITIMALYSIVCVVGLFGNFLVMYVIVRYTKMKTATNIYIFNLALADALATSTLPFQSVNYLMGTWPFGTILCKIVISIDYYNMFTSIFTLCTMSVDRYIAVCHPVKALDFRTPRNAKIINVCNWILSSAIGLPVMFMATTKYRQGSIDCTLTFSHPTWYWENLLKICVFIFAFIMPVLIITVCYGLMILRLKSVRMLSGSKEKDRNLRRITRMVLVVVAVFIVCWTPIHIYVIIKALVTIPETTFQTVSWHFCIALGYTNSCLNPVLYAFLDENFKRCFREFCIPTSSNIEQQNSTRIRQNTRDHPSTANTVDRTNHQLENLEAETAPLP
Summary of the method: as §1

[4] = biological target: T4, Mouse urotensin (mUR2) (Mus musculus, UniProt Q8VIH9); assay: Radioligand binding, mouse urotensin mUR2 membranes, FlashPlate, [125I]-Urotensin II; conditions: compound at 10 μM, [125I]-Urotensin II
T4 construct: purchased Perkin Elmer Biosignal
T4 sequence (Q8VIH9 1-385): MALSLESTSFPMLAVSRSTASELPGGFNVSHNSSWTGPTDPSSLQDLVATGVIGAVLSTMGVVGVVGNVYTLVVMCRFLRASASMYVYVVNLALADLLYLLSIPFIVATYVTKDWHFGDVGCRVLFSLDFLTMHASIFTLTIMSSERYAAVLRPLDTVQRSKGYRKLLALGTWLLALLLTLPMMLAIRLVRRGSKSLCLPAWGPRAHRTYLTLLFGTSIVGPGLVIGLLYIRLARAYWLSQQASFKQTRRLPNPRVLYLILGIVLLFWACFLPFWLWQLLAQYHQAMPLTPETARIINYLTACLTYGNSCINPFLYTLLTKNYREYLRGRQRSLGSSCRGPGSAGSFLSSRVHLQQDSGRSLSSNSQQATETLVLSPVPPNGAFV
Summary of the method: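 Cloned mouse urotensin (mUR2) receptor membranes from Perkin Elmer Biosignal were immobilized in FlashPlate microplates using a proprietary coating. Each well got 19.5 μl buffer, then 0.5 μl of DMSO, reference ligand, or compound. Adding 5 μl of [125I]-Urotensin II, diluted to 5× final concentration in binding buffer, started binding. Plates were sealed with TopSeal-A and incubated 1 hour at room temperature in the dark. Wells were counted for 30 seconds each on a TopCount after a 60-second delay, and percentage inhibition was calculated.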

[5] = biological target: T5, Human neuropeptide Y (NPY-Y1) (Homo sapiens, UniProt P25929); assay: Radioligand binding, human neuropeptide Y NPY-Y1 membranes, FlashPlate, [125I]-PYY; conditions: compound at 10 μM, [125I]-PYY
T5 construct: purchased Perkin Elmer Biosignal
T5 sequence (P25929 1-384): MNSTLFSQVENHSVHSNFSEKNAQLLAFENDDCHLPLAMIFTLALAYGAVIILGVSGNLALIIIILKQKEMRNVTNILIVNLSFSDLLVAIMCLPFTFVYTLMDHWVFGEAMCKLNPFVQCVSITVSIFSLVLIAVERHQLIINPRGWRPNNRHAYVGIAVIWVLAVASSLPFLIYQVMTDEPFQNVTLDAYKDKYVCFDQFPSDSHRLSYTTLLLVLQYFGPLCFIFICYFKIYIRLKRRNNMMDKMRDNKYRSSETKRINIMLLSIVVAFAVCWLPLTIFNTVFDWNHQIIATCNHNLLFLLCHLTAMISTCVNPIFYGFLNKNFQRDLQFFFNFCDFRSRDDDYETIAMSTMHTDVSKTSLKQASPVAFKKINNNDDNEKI
Summary of the method: as §1

[6] = biological target: T6, Human κ-Opioid (KOP) (Homo sapiens, UniProt P41145); assay: Radioligand binding, human κ-opioid (KOP) membranes, filtration, [3H]-Diprenorphine; conditions: compound at 10 μM, [3H]-Diprenorphine
T6 construct: purchased Perkin Elmer Biosignal
T6 sequence (P41145 whole entry): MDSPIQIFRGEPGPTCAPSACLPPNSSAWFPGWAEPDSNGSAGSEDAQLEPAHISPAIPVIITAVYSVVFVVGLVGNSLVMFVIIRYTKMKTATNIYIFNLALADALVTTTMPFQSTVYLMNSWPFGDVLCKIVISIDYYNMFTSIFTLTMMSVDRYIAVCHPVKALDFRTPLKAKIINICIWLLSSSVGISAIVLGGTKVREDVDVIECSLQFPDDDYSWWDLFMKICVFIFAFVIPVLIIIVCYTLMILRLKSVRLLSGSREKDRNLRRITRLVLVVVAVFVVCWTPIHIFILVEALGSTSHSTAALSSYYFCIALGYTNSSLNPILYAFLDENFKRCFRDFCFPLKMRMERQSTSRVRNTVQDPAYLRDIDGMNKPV
Summary of the method: (§2)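 Percent inhibition of radioligand binding measured on recombinant human membranes: NK1 with [125I]-Substance P, KOP with [3H]-Diprenorphine. Incubation 1 h at room temperature, then harvest onto 0.3% PEI-soaked filters, cold Tris-HCl pH 7.4 washes and scintillation counting; non-specific binding from reference ligand wells.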

[7] = biological target: T7, Human neurokinin (NK1) (Homo sapiens, UniProt P25103); assay: Radioligand binding, human neurokinin NK1 membranes, filtration, [125I]-Substance P; conditions: compound at 10 μM, [125I]-Substance P
T7 construct: purchased Perkin Elmer Biosignal
T7 sequence (P25103 whole entry): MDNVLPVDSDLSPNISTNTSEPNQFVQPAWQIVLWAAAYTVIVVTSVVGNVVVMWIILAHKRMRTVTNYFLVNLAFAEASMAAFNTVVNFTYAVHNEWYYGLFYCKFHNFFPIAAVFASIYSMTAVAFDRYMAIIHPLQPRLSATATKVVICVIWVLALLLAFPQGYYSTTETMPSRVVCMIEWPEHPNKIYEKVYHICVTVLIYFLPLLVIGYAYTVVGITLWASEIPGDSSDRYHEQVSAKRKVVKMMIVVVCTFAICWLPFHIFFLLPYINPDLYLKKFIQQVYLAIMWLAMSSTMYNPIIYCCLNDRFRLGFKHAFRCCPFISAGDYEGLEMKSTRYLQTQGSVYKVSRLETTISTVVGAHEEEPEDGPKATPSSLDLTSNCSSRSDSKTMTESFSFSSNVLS
Summary of the method: as §2

[8] = biological target: T8, Human Melanocortin (MC3) (Homo sapiens, UniProt P41968); assay: Radioligand binding, human melanocortin MC3 membranes, FlashPlate, [125I]-NDP-αMSH; conditions: compound at 10 μM, [125I]-NDP-αMSH
T8 construct: purchased Perkin Elmer Biosignal
T8 sequence (P41968 whole entry): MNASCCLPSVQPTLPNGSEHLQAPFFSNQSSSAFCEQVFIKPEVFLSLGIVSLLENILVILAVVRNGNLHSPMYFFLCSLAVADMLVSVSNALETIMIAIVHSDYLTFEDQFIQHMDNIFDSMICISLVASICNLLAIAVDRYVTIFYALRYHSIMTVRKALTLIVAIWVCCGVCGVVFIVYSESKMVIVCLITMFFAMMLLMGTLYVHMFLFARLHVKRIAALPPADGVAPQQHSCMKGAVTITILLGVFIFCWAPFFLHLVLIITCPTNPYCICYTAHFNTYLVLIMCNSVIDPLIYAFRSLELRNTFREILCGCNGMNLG
Summary of the method: as §1

[9] = biological target: T9, Human Melanocortin (MC4) (Homo sapiens, UniProt P32245); assay: Radioligand binding, human melanocortin MC4 membranes, FlashPlate, [125I]-NDP-αMSH; conditions: compound at 10 μM, [125I]-NDP-αMSH
T9 construct: purchased Perkin Elmer Biosignal
T9 sequence (P32245 whole entry): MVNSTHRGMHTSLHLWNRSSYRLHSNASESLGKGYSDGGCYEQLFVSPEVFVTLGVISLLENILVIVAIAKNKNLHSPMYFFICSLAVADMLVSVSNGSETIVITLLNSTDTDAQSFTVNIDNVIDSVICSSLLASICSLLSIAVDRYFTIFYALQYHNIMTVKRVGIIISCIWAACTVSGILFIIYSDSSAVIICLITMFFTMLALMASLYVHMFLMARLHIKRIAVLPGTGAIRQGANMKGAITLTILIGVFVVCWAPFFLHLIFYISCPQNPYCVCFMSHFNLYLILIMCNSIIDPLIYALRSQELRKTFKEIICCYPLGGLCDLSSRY
Summary of the method: as §1

[10] = biological target: T10, Human melanin-concentrating hormone (MCH1) (Homo sapiens, UniProt Q99705); assay: Radioligand binding, human melanin-concentrating hormone MCH1 membranes, FlashPlate, [125I]-S36057; conditions: compound at 10 μM
T10 construct: purchased Perkin Elmer Biosignal
T10 sequence (Q99705 whole entry): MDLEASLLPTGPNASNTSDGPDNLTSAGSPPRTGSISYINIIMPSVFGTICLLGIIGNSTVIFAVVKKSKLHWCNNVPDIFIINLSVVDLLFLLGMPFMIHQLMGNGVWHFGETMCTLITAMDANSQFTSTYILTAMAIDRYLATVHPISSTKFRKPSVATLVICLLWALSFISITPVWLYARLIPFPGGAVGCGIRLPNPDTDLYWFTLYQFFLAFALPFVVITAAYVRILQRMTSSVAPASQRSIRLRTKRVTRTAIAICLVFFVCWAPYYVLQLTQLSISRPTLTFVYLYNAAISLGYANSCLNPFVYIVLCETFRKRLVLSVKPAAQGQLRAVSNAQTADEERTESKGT
Summary of the method: as §1

[11] = biological target: T11, Human melanocortin (MC5) (Homo sapiens, UniProt P33032); assay: Radioligand binding, human melanocortin MC5 membranes, FlashPlate, [125I]-NDP-αMSH; conditions: compound at 10 μM, [125I]-NDP-αMSH
T11 construct: purchased Perkin Elmer Biosignal
T11 sequence (P33032 whole entry): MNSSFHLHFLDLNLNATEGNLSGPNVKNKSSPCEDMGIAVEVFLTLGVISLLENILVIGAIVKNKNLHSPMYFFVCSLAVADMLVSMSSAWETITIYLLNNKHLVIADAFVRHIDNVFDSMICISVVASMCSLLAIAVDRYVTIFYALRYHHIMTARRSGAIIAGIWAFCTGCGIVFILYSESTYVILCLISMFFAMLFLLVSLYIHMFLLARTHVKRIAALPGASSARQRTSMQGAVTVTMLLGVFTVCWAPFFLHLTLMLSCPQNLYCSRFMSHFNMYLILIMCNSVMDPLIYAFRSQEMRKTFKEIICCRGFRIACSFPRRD
Summary of the method: as §1

T1 sequence (P41146 whole entry): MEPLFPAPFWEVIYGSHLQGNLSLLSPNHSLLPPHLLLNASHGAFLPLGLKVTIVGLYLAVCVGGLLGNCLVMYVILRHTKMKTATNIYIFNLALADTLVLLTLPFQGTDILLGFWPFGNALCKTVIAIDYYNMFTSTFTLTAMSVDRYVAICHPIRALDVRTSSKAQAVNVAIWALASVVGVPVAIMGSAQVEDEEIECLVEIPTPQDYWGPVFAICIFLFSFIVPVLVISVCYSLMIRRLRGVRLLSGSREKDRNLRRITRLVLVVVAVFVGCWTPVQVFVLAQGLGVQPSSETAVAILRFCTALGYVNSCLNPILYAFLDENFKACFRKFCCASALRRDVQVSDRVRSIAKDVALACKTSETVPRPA

COCC1OC(OCc2ccccc2)C(NC(=O)CCNC(=N)N)C(OCc2ccc(-c3ccccc3)cc2)C1O (stereo not shown) [compound 185]
A10 radioligand binding, percentage inhibition [1]: − (“−” indicates less than 50% inhibition at 10 μM) | A1 radioligand binding, percentage inhibition [2]: − (“−” indicates less than 50% inhibition at 10 μM) | A7 radioligand binding, percentage inhibition [3]: − (“−” indicates less than 50% inhibition at 10 μM) | A11 radioligand binding, percentage inhibition [4]: − (“−” indicates less than 50% inhibition at 10 μM) | A9 radioligand binding, percentage inhibition [5]: − (“−” indicates less than 50% inhibition at 10 μM) | A2 radioligand binding, percentage inhibition [6]: − (“−” indicates less than 50% inhibition at 10 μM) | A8 radioligand binding, percentage inhibition [7]: + (“+” indicates greater than 50% inhibition at 10 μM) | A3 radioligand binding, percentage inhibition [8]: − (“−” indicates less than 50% inhibition at 10 μM) | A4 radioligand binding, percentage inhibition [9]: + (“+” indicates greater than 50% inhibition at 10 μM) | A6 radioligand binding, percentage inhibition ([10]; [125I]-S36057): + (“+” indicates greater than 50% inhibition at 10 μM) | A5 radioligand binding, percentage inhibition [11]: + (“+” indicates greater than 50% inhibition at 10 μM)

COC[C@H]1OC(OCc2ccccc2)[C@H](NC(=O)CCCN)[C@@H](OCc2cccc(O)c2)[C@@H]1O (stereo partly shown) [compound 136]
A10 radioligand binding, percentage inhibition [1]: − (“−” indicates less than 50% inhibition at 10 μM) | A1 radioligand binding, percentage inhibition [2]: − (“−” indicates less than 50% inhibition at 10 μM) | A7 radioligand binding, percentage inhibition [3]: − (“−” indicates less than 50% inhibition at 10 μM) | A11 radioligand binding, percentage inhibition [4]: − (“−” indicates less than 50% inhibition at 10 μM) | A9 radioligand binding, percentage inhibition [5]: − (“−” indicates less than 50% inhibition at 10 μM) | A2 radioligand binding, percentage inhibition [6]: − (“−” indicates less than 50% inhibition at 10 μM) | A8 radioligand binding, percentage inhibition [7]: + (“+” indicates greater than 50% inhibition at 10 μM) | A3 radioligand binding, percentage inhibition [8]: − (“−” indicates less than 50% inhibition at 10 μM) | A4 radioligand binding, percentage inhibition [9]: − (“−” indicates less than 50% inhibition at 10 μM) | A6 radioligand binding, percentage inhibition ([10]; [125I]-S36057): − (“−” indicates less than 50% inhibition at 10 μM) | A5 radioligand binding, percentage inhibition [11]: − (“−” indicates less than 50% inhibition at 10 μM)

N=C(N)NCCC(=O)NC1C(OCc2ccc(-c3ccccc3)cc2)OC(COCc2ccccc2)C(O)C1OCc1ccc(-c2ccccc2)cc1 (stereo not shown) [compound 415]
A10: inhibition of radioligand binding ([1]; human ORL1 membranes): − (“−” indicates less than 50% inhibition at 10 μM) | A1: inhibition of radioligand binding ([2]; human DOP membranes): − (“−” indicates less than 50% inhibition at 10 μM) | A7: inhibition of radioligand binding ([3]; human MOP membranes): − (“−” indicates less than 50% inhibition at 10 μM) | A11: inhibition of radioligand binding ([4]; mouse mUR2 membranes): − (“−” indicates less than 50% inhibition at 10 μM) | A9: inhibition of radioligand binding ([5]; human NPY-Y1 membranes): − (“−” indicates less than 50% inhibition at 10 μM) | A2: inhibition of radioligand binding ([6]; human KOP membranes): − (“−” indicates less than 50% inhibition at 10 μM) | A8: inhibition of radioligand binding ([7]; human NK1 membranes): + (“+” indicates greater than 50% inhibition at 10 μM) | A3: inhibition of radioligand binding ([8]; human MC3 membranes): + (“+” indicates greater than 50% inhibition at 10 μM) | A4: inhibition of radioligand binding ([9]; human MC4 membranes): + (“+” indicates greater than 50% inhibition at 10 μM) | A6: inhibition of radioligand binding ([10]; [125I]-S36057, human MCH1 membranes): + (“+” indicates greater than 50% inhibition at 10 μM) | A5: inhibition of radioligand binding ([11]; human MC5 membranes): + (“+” indicates greater than 50% inhibition at 10 μM)

COCC1OC(OCCc2ccccc2)C(NC(=O)CCCN)C(OCc2ccc3ccccc3c2)C1O (stereo not shown) [compound 228]
A10: inhibition of radioligand binding ([1]; FlashPlate): − (“−” indicates less than 50% inhibition at 10 μM) | A1: inhibition of radioligand binding ([2]; FlashPlate): − (“−” indicates less than 50% inhibition at 10 μM) | A7: inhibition of radioligand binding ([3]; FlashPlate): − (“−” indicates less than 50% inhibition at 10 μM) | A11: inhibition of radioligand binding ([4]; FlashPlate): − (“−” indicates less than 50% inhibition at 10 μM) | A9: inhibition of radioligand binding ([5]; FlashPlate): − (“−” indicates less than 50% inhibition at 10 μM) | A2: inhibition of radioligand binding ([6]; filtration): − (“−” indicates less than 50% inhibition at 10 μM) | A8: inhibition of radioligand binding ([7]; filtration): + (“+” indicates greater than 50% inhibition at 10 μM) | A3: inhibition of radioligand binding ([8]; FlashPlate): − (“−” indicates less than 50% inhibition at 10 μM) | A4: inhibition of radioligand binding ([9]; FlashPlate): − (“−” indicates less than 50% inhibition at 10 μM) | A6: inhibition of radioligand binding ([10]; [125I]-S36057, FlashPlate): − (“−” indicates less than 50% inhibition at 10 μM) | A5: inhibition of radioligand binding ([11]; FlashPlate): + (“+” indicates greater than 50% inhibition at 10 μM)

CSC1O[C@H](COCc2ccccc2)[C@@H](O)[C@@H](OCc2ccc(-c3ccccc3)cc2)[C@H]1NC(=O)CCCNC(=N)N (stereo partly shown) [compound 287]
A10: inhibition of radioligand binding, human opioid (ORL1) [1]: − (“−” indicates less than 50% inhibition at 10 μM) | A1: inhibition of radioligand binding, human δ-opioid (DOP) [2]: − (“−” indicates less than 50% inhibition at 10 μM) | A7: inhibition of radioligand binding, human μ-opioid (MOP) [3]: − (“−” indicates less than 50% inhibition at 10 μM) | A11: inhibition of radioligand binding, mouse urotensin (mUR2) [4]: − (“−” indicates less than 50% inhibition at 10 μM) | A9: inhibition of radioligand binding, human neuropeptide Y (NPY-Y1) [5]: − (“−” indicates less than 50% inhibition at 10 μM) | A2: inhibition of radioligand binding, human κ-opioid (KOP) [6]: − (“−” indicates less than 50% inhibition at 10 μM) | A8: inhibition of radioligand binding, human neurokinin (NK1) [7]: + (“+” indicates greater than 50% inhibition at 10 μM) | A3: inhibition of radioligand binding, human melanocortin (MC3) [8]: − (“−” indicates less than 50% inhibition at 10 μM) | A4: inhibition of radioligand binding, human melanocortin (MC4) [9]: − (“−” indicates less than 50% inhibition at 10 μM) | A6: inhibition of radioligand binding, human melanin-concentrating hormone (MCH1) ([10]; [125I]-S36057): − (“−” indicates less than 50% inhibition at 10 μM) | A5: inhibition of radioligand binding, human melanocortin (MC5) [11]: − (“−” indicates less than 50% inhibition at 10 μM)
